Measurements published in ChEMBL document CHEMBL5465560, “Selectivity Literature for EUbOPEN Chemogenomic Library” (2024).

What was measured:
[1] = biological target: Homeodomain-interacting protein kinase 1 (Homo sapiens, UniProt Q86Z02); assay: Selectivity interaction (Enzymatic assay (Eurofins)) EUB0001049a HIPK1
[2] = biological target: Phosphatidylinositol 4-kinase alpha (Homo sapiens, UniProt P42356); assay: Selectivity interaction (Kinase panel (literature)) EUB0001199aCl PI4KA; details: at 1 µM
Chain of Phosphatidylinositol 4-kinase alpha (P42356 whole entry, looked up): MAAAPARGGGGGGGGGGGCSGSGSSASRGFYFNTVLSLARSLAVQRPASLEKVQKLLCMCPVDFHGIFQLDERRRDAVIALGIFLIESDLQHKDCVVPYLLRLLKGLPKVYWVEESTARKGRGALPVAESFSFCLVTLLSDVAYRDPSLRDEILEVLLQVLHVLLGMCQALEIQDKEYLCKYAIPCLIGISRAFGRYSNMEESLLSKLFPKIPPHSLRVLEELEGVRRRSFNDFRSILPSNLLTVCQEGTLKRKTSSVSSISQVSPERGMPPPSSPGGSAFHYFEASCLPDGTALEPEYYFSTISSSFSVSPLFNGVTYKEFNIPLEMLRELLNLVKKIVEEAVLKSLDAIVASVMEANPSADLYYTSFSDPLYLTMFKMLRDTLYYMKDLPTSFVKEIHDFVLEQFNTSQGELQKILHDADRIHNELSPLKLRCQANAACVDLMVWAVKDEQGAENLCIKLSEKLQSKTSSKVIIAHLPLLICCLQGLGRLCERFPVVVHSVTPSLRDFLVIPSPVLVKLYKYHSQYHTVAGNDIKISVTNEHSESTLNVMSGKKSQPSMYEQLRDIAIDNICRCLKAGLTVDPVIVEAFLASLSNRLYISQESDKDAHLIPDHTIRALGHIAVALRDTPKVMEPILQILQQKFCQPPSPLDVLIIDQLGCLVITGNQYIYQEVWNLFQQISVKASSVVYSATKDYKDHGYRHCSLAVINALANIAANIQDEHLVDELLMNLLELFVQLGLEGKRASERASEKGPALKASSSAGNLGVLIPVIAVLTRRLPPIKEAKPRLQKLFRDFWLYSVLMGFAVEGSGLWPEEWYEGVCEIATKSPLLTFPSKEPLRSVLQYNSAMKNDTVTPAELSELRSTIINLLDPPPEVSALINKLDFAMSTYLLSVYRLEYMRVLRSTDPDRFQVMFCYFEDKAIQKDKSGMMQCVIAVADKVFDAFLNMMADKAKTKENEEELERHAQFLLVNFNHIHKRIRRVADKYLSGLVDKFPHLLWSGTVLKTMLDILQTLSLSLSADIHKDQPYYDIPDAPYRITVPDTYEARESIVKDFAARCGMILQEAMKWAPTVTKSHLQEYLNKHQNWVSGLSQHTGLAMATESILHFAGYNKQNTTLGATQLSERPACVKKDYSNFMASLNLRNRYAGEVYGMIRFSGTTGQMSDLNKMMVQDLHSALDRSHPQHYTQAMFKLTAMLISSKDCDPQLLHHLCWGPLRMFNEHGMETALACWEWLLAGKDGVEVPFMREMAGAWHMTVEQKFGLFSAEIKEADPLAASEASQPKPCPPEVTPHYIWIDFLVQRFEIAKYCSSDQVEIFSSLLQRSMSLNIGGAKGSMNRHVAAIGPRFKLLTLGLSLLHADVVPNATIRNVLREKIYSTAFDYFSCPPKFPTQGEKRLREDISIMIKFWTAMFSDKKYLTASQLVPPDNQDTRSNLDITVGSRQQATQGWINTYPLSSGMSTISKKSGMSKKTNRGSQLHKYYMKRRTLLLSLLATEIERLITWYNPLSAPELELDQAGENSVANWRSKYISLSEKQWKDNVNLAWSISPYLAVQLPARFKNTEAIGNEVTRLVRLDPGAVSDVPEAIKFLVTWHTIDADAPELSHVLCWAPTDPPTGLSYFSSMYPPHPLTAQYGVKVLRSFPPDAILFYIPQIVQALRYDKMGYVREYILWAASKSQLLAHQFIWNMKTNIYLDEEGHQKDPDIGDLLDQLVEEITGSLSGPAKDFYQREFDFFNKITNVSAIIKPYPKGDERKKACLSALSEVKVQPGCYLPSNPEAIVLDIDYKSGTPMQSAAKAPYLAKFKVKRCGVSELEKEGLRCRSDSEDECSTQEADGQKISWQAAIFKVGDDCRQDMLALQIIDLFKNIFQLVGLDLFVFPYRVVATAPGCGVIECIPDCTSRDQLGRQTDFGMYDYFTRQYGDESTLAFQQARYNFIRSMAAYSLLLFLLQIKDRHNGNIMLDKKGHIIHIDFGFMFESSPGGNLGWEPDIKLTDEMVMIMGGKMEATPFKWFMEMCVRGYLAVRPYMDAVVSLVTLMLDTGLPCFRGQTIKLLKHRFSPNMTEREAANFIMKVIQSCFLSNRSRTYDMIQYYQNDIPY

[3] = biological target: MAP kinase-activated protein kinase 2 (Homo sapiens, UniProt P49137); assay: Selectivity interaction (Kinase panel (33PanQinase(R) Activity Assay)) EUB0000877a MAPKAPK2
Chain of MAP kinase-activated protein kinase 2 (P49137 whole entry): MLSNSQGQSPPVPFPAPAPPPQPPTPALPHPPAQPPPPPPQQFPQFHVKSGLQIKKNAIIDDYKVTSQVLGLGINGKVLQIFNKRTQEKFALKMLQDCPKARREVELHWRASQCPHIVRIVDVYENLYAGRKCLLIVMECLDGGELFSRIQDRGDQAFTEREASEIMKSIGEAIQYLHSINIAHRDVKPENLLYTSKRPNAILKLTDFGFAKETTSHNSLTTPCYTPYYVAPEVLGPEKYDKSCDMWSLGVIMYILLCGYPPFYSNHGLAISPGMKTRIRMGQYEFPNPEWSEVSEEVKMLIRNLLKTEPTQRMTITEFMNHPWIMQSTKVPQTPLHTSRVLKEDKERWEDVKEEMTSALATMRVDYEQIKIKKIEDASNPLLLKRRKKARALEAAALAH

[4] = biological target: Dual specificity mitogen-activated protein kinase kinase 2 (Homo sapiens) (UniProt P36507); assay: Selectivity interaction (ActivX KiNativ screen (kinase selectivity in THP-1 cell lysates)) EUB0000639a MAP2K2; type: subcellular; details: lysate, at 5 µM
Chain of Dual specificity mitogen-activated protein kinase kinase 2 (Homo sapiens) (P36507 whole entry): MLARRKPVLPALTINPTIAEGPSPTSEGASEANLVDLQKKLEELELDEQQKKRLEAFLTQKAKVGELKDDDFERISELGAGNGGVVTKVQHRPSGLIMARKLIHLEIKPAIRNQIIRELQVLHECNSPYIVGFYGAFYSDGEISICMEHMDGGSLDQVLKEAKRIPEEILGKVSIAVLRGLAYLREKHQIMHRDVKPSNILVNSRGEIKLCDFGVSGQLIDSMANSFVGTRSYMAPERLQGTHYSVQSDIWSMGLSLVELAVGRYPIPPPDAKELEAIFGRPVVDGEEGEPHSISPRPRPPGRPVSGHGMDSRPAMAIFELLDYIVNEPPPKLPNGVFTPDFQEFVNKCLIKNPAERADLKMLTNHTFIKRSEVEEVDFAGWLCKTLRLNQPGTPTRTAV

[5] = biological target: Bone morphogenetic protein receptor type-1B (Homo sapiens, UniProt O00238); assay: Selectivity interaction (KinomeScan (DiscoverX)) EUB0000045b BMPR1B
Chain of Bone morphogenetic protein receptor type-1B (O00238 whole entry): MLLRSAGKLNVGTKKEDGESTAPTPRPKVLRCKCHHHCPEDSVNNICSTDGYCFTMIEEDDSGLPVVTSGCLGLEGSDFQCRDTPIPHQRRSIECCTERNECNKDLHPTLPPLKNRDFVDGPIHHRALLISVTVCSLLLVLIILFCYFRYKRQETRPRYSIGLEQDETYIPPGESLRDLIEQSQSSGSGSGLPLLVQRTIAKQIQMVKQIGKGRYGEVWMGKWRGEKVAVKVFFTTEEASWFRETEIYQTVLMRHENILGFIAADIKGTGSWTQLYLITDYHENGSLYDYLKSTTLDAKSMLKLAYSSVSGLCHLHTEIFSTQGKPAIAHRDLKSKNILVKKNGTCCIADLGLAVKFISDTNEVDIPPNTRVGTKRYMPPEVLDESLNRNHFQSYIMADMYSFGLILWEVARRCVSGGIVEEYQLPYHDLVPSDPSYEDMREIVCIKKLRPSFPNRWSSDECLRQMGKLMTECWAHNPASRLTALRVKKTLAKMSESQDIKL

[6] = biological target: Cyclin-dependent kinase 17 (Homo sapiens) (UniProt Q00537); assay: Selectivity interaction (KinomeScan (DiscoverX)) EUB0000618a CDK17; details: at 10 µM
Chain of Cyclin-dependent kinase 17 (Homo sapiens) (Q00537 whole entry, looked up): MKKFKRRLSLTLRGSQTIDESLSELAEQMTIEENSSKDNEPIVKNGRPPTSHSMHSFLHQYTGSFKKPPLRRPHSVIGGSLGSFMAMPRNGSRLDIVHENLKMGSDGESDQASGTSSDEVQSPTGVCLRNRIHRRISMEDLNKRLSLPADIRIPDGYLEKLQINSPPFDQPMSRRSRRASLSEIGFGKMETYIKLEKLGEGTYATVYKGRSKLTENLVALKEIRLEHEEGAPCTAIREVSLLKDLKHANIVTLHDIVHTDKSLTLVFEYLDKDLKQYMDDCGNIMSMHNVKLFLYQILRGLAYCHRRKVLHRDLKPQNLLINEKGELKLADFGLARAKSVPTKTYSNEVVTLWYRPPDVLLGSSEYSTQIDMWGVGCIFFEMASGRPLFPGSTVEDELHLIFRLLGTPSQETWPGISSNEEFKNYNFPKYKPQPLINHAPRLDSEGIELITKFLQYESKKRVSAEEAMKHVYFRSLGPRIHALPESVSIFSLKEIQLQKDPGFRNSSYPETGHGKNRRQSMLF

[7] = biological target: RAC-gamma serine/threonine-protein kinase (Homo sapiens, UniProt Q9Y243); assay: Selectivity interaction (KinomeScan (DiscoverX)) EUB0000618a AKT3; details: at 10 µM
[8] = biological target: T1, Mitogen-activated protein kinase kinase kinase 7 (Homo sapiens) (UniProt O43318); assay: Selectivity interaction (ActivX KiNativ screen (ex vivo kinase selectivity in human PBMCs)) EUB0001619a MAP3K7; type: cell-based; details: PBMC, at 1 µM
T1 sequence (whole entry): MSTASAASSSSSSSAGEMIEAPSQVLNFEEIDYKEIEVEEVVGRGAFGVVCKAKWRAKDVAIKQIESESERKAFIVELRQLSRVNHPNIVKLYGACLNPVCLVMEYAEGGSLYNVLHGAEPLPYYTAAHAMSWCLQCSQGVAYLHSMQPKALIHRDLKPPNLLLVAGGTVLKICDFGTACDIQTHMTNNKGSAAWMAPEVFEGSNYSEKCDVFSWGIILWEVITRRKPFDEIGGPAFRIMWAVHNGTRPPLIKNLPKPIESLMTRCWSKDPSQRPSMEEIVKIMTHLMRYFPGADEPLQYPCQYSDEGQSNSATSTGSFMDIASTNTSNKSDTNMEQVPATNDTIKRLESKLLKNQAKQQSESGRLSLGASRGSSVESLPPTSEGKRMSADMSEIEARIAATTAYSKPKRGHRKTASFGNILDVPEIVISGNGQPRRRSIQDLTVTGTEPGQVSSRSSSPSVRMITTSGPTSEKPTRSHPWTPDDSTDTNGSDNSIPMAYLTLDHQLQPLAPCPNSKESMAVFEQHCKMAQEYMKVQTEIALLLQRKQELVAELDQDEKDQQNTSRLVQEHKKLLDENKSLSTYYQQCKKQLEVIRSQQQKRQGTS

[9] = biological target: T2, NUAK family SNF1-like kinase 1 (Homo sapiens) (UniProt O60285); assay: Selectivity interaction (Upstate Kinase Profiler service (Millipore)) EUB0000056c NUAK1; details: at 1 µM
T2 sequence (whole entry): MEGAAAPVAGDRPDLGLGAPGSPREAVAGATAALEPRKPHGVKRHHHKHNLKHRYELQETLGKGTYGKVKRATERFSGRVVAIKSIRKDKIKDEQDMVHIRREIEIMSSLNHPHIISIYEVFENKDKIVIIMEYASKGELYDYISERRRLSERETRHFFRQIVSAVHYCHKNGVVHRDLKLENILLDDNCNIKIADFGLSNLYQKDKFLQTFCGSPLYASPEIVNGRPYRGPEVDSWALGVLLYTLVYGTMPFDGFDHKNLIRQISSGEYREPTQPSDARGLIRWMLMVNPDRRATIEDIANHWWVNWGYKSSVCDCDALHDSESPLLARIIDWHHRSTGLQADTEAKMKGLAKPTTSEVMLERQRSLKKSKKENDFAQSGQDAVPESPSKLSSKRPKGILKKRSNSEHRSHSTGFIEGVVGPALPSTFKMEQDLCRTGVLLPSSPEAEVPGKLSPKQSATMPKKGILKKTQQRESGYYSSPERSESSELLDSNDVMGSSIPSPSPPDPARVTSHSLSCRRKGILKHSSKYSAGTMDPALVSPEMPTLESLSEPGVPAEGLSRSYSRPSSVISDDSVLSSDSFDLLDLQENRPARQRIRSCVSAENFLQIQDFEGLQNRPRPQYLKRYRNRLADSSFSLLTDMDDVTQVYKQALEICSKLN

[10] = biological target: Serine/threonine-protein kinase PAK 6 (Homo sapiens) (UniProt Q9NQU5); assay: Selectivity interaction (KinomeScan (DiscoverX)) EUB0000655a PAK6; details: at 10 µM
Chain of Serine/threonine-protein kinase PAK 6 (Homo sapiens) (Q9NQU5 whole entry, looked up): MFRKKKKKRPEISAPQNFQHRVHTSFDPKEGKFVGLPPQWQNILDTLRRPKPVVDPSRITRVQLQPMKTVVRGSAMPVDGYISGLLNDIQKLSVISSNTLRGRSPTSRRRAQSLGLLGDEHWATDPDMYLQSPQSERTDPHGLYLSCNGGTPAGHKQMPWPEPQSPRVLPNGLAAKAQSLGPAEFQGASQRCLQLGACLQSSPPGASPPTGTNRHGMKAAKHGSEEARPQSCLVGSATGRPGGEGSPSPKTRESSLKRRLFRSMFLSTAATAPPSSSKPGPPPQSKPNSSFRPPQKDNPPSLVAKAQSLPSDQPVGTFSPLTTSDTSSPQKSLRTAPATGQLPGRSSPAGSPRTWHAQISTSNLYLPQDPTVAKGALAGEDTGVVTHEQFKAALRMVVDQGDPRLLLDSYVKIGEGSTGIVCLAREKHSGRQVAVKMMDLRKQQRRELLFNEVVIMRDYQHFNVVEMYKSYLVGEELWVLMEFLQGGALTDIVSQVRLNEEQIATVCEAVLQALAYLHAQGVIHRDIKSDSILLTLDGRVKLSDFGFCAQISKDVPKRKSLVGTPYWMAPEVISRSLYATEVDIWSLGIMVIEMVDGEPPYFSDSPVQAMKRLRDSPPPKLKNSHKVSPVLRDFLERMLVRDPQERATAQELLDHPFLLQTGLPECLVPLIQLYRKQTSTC

[11] = biological target: Macrophage colony-stimulating factor 1 receptor (Homo sapiens) (UniProt P07333); assay: Selectivity interaction (KinomeScan (DiscoverX)) EUB0000655a CSF1R; details: at 10 µM
[12] = biological target: Dual specificity tyrosine-phosphorylation-regulated kinase 1A (Homo sapiens, UniProt Q13627); assay: Selectivity interaction (SelectScreen profiling (Invitrogen)) EUB0000607a DYRK1A; details: at 2 µM
[13] = biological target: T3, Homeodomain-interacting protein kinase 4 (Homo sapiens) (UniProt Q8NE63); assay: Selectivity interaction (KinomeScan (DiscoverX)) EUB0000607a HIPK4; details: at 10 µM
T3 sequence (whole entry): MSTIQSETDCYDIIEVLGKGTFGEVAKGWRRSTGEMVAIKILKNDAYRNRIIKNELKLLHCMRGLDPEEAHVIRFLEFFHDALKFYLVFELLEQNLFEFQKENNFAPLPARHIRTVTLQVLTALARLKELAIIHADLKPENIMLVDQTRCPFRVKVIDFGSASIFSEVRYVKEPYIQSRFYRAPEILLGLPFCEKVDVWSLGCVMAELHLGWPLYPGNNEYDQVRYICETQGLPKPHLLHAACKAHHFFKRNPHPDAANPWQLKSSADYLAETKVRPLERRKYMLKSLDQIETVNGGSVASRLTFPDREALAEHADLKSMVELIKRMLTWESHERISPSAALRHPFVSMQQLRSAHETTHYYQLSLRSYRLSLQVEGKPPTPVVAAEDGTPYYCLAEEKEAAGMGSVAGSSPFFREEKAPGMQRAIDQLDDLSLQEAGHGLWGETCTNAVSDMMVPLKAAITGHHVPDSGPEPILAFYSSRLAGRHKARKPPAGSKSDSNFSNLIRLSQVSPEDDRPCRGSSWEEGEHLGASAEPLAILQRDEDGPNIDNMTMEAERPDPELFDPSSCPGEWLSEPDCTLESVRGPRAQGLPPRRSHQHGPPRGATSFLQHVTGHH

COc1cc(Nc2nc(C)cc(-c3cnn4nc(OC)ccc34)n2)cc(C(F)(F)F)c1
IC50 [1]: > 10 µM

CN1Cc2nccc(-c3cn(C)nc3-c3ccc(F)cc3)c2C1=O
% of inhibition [2]: -13%

CCC(=O)N1CC[C@H](Nc2ncnc3c2CN(c2cnc(OC)c(C(F)(F)F)c2)CC3)C1 [LENIOLISIB]
IC50 [3]: > 10 µM

CC[C@@H]1[C@H](F)C(=O)N[C@@H]1COc1nccc2cc(C(N)=O)c(OC)cc12 [ZIMLOVISERTIB]
% of inhibition [4]: -10.6%

C=CC(=O)Nc1cc(-n2c(=O)ccc3cnc4ccc(-c5ccc(NS(C)(=O)=O)cc5)cc4c32)ccc1C
% of control ([5]; at 1 µM): 100% | % of control ([5]; at 10 µM): 80%

O[C@H]1CC[C@H](Nc2ncc3nc(Nc4c(F)cc(F)cc4F)n([C@H]4CCOC4)c3n2)CC1
% of control [6]: 100% | % of control [7]: 100%

N#Cc1cccc(-c2c[nH]c3ncnc(N4CCOCC4)c23)c1
% of inhibition [8]: 21%

Cc1ccc(-c2ccc3c(ccc4sc5c(c43)NC[C@@H](C)NC5=O)n2)cn1
% of inhibition [9]: 35%

CN(C)CCOc1ccc(-c2nc(-c3ccncc3)c(-c3ccc4c(c3)CC/C4=N\O)[nH]2)cc1
% of control [10]: 100% | % of control [11]: 86%

CNC(=O)Nc1ccc(-c2nc(N3CC4CCC(C3)O4)c3cnn(C4CCC5(CC4)OCCO5)c3n2)cc1
% of inhibition [12]: 2% | % of control [13]: 100%
